Experimental data: patent publication US20060286131A1, “Use of stellate ganglion block for the treatment of hot flashes and other conditions” (priority 2005, published 2006)

Tested on: severe menopausal hot flashes
Assay: stellate ganglion block with Marcaine in women with hot flashes, self-reported pre and post block
Type: in vivo
From the text: A stellate ganglion block is illustratively performed by placing the patient in the supine position (on the back) with the neck slightly extended and the jaw open. While the patient is usually conscious for the procedure, a medication such as Versed (midazolam hydrochloride), fentanyl, or other sedative is often administered, to relax the patient. A local anesthetic is also usually administered, to numb the skin and tissue down to the ganglion nerve. A needle is inserted toward the stellate ganglion. […] The needle 20 is shown inserted adjacent to the stellate ganglion 10. In the illustrative block, a contrast solution is injected through needle 20 via syringe 22, and the needle position is confirmed by fluoroscopy or other means, as are known in the art.
The anesthetic 30 is then injected via needle 20 into stellate ganglion 10. Illustratively, 5 cc 0.375% Marcaine® (bupivacaine) may be used. However, it is understood that other anesthetics, illustratively lidocaine, morphine or other opioids, clonidine, botox, or tetracine, or a combination of anesthetic and epinephrine, may be used and that the dosage range may vary depending on the particular anesthetic and other factors, as are known in the art. Needle 20 is removed, and the patient is optionally placed in the sitting position to facilitate the spread of anesthesia inferiorly to the stellate ganglion. Illustratively, longer acting anesthetics such as bupivacaine are used, but other anesthetics may be used, as are known in the art. The stellate ganglion block may also be performed by radiofrequency lesioning, as is known in the art.
Six women suffering from severe menopausal hot flashes each received a standard stellate ganglion block (0.375% Marcaine, 5cc), as described above. Hot flashes were assessed by self-reporting pre and post stellate ganglion block.

CCCCN1CCCCC1C(=O)Nc1c(C)cccc1C (stereo not shown) [Marcaine, bupivacaine]
additional asymptomatic period of relief after second stellate ganglion block (0.375% Marcaine 5cc, second block after mild hot flashes returned): 4-18 weeks
hot flash relief of repeated blocks compared with the initial block (repeated blocks, each case): equal to or greater than that of the initial block
success of initial stellate ganglion block, evidenced by positive Horner's syndrome and anhydrosis (six women, 0.375% Marcaine 5cc): successful in all six subjects
complete alleviation of hot flashes, duration after initial stellate ganglion block (six women, 0.375% Marcaine 5cc, first block, self-reported): 2-5 weeks
